Results taken from patent US20090093460A1, “Compositions” (AstraZeneca AB, priority 2003, published 2009).
Read-outs that look alike come from different tables or passages of the source.

Columns and labels:
[1] = PET scans of primate subjects, brain entry; assay type: in vivo; details: preliminary PET scans
Text: (§1) The compound of Formula I is a dibenzothiazepine that has shown antidopaminergic activity.

[2] = molecular target: T1, D1 receptors (Homo sapiens, UniProt P21728); assay: PET scans of primate subjects, D1 occupancy; assay type: in vivo; details: preliminary PET scans
T1 construct: from tissue; host or cells: brain of living primate subjects (PET)
Text: as §1

[3] = molecular target: Adrenergic α1* Non-Selective; assay: Radioligand binding 203500 Adrenergic α1* Non-Selective; parameters: species or system rat
Text: Receptor binding methods, α-adrenergic nonselective, are provided below.

[4] = molecular target: T2, 5-HT1A receptors (Homo sapiens, UniProt P08908); assay: PET scans of primate subjects, 5-HT1A occupancy; assay type: in vivo; parameters: from tissue; host or cells: brain of living primate subjects (PET); details: preliminary PET scans
T2 sequence (P08908 1-422): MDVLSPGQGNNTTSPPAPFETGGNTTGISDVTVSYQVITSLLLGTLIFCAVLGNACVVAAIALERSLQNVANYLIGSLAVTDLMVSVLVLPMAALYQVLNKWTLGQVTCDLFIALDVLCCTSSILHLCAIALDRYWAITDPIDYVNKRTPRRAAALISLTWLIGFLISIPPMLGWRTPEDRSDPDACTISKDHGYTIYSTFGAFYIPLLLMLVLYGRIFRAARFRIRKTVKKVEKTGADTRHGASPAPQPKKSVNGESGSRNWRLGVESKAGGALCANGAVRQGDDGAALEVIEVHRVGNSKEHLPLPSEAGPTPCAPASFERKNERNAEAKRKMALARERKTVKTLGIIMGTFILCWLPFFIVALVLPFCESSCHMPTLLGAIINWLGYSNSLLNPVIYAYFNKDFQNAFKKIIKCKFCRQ
Text: as §1

[5] = Brain exposure in rats; assay type: in vivo; details: rat; for Kp at 1 h: brain
Method: Brain exposure was measured in rats. For concentrations of 11-piperazin-1-yldibenzo[b,f][1,4]thiazepine in brain, rats were dosed either po or iv (n=3 per dose route). At one hour after compound administration blood and brain samples were obtained and then processed for analysis using HPLC/MS to measure concentrations of 11-piperazin-1-yldibenzo[b,f][ 1,4]thiazepine.

[6] = tested on: mice; assay: Mouse forced swim test; assay type: in vivo; details: 10.0 mg/kg sc, 15 minutes prior
Method: Methods: Mice were placed in cylinders of water (25.0° C.±1.5° C.) for 6 minutes. The amount of immobility was quantified during the last 4 minutes of each session. The experimental observer was blind to the treatment conditions. […] Imipramine 45.0 mg/kg and citalopram 15.0 mg/kg were measured as the salt and administered ip 60 minutes prior to the behavioural session.

[7] = tested on: rats; assay: D-amphetamine locomotor activity test; assay type: in vivo, rat; details: freebase, s.c.
Text: The methods and procedures used can be found in Warawa et al., J. Med. Chem., 2001, 44 (3), 372-389, and are incorporated herein by reference.

[8] = molecular target: T2, 5-HT1A receptors; assay: In vitro assay of 5HT1A agonism (GTPγ35S, CHO membranes); assay type: biochemical; parameters: expressed in transfected cells; host or cells: CHO
Method: CHO membranes (10 μg protein) expressing human 5-HT1A receptors were incubated in 100 μl of 20 mM HEPES, pH 7.4 assay buffer containing 10 mM MgCl2, 100 mM NaCl, 0.1% BSA, 20 μM GDP, 200 μg WGA-PVT beads (Amersham RPNQ0001), 200 pM GTPγ^35S (Perkin Elmer NEG-030H). 11-piperazin-1-yldibenzo[b,f][1,4]thiazepine was incubated with the above at 11 different concentrations varying from 10 μM to 170 pM in Packard OptiPlates with shaking for 1.5 hours at room temperature. […] The plates were centrifuged to settle the beads and measured in a Parkard TopCount.

[9] = Plasma levels in satellite exposure animals (Geller-Seifter); assay type: in vivo; details: Long Evans, rat, subcutaneous, 0.25 hours after administration
Method: Anxiolytic activity of 11-piperazin-1-yldibenzo[b,f][1,4]thiazepine was tested in rats according to the Geller-Seifter conflict test. Efficacy results are presented in Table 1 and plasma levels in satellite exposure animals at 0.25 hours after administration are provided in Table 2.
Several doses were tested on a given day in different subjects. Each dose, then, was tested in a different sub-set of rats. The dependent variables recorded were the rate of responding in unpunished and punished components (total responses/total time under the component), the number of shocks delivered. A selective anxiolytic effect is defined as an increase in responding in the […] components with relatively less or no effect on responding in […] components. t-Tests were used to compare mean of the control's rate of responding on vehicle day of the rats used for a specific dose to the same rats means following delivery of each dose of compound (for only the rats used within each dose). Brains, CSF and plasma were collected in a satellite group of rats that match the Geller-Seifter rats to evaluate exposure levels.
Exposure sampling: In weight and feeding status-matched subjects, terminal plasma, whole brain and CSF samples were collected. Four rats were used for each of the 4 doses of drug, with samples obtained 15 minutes after dosing.

[10] = molecular target: T3, Adrenergic α2B (Homo sapiens, UniProt P18089); assay: Radioligand binding Adrenergic α2B
T3 sequence (P18089 1-450): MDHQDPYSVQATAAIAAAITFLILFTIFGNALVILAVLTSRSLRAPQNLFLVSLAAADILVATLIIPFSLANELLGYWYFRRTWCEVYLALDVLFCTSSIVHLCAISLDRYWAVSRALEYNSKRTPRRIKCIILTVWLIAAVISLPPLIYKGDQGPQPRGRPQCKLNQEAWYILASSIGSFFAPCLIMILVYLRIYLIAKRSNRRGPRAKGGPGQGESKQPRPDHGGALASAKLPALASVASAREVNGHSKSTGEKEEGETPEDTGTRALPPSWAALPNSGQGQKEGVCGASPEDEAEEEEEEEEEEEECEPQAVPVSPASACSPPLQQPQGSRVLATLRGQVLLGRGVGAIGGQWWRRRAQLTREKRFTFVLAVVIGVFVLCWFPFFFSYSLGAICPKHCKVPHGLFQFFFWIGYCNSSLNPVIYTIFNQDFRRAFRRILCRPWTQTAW

[11] = molecular target: T4, D2 receptors (Homo sapiens, UniProt P14416); parameters: species or system primate; details: in vivo
T4 construct: from tissue; host or cells: brain of living primate subjects (PET)
T4 sequence (P14416 whole entry): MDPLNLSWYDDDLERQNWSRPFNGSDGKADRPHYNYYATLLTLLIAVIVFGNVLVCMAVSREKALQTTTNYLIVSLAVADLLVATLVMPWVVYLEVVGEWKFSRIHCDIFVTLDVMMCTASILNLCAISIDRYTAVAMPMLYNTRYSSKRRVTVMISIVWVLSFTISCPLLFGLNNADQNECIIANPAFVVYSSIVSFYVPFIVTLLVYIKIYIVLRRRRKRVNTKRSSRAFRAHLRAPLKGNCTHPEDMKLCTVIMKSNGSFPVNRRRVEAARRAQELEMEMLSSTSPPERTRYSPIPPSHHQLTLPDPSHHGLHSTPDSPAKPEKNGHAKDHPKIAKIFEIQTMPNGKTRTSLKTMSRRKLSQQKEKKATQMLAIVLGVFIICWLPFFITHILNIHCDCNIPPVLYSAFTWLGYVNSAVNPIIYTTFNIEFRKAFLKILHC

T1 sequence (P21728 whole entry): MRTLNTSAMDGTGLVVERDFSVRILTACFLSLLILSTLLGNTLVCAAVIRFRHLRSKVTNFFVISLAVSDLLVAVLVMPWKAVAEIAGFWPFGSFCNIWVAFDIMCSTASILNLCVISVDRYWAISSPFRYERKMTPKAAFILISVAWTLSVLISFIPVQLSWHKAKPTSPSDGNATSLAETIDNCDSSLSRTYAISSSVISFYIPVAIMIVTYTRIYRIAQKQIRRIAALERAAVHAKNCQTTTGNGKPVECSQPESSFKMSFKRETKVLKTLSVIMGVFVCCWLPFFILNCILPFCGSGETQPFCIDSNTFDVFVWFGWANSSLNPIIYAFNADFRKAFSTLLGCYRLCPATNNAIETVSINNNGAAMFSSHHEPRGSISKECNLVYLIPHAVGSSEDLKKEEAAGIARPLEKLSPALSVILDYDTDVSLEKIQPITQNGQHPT

c1ccc2c(c1)N=C(N1CCNCC1)c1ccccc1S2 [11-piperazin-1-yldibenzo[b,f][1,4]thiazepine]
brain entry by PET [1]: reaches the brain | receptor occupancy by PET [2]: occupies | IC50 [3]: 69.3 nM | Ki [3]: 37.2 nM | % INH. ([3]; 0.1 μM): 61% | receptor occupancy by PET [4]: occupies | Kp at 1 h ([5]; 30 umol/kg, one hour after 30 μmol/kg po, read-out: brain/plasma exposure ratio): 3.4 | Kp at 1 h ([5]; after iv dosing, read-out: brain:plasma concentration ratio): 4.6 | concentration at 1 h ([5]; plasma, 30 μmol/kg, heading: average concentration in plasma, one hour after 30 μmol/kg po): 658 nM | antidepressant effect (immobility) [6]: antidepressant effects in this assay comparable to imipramine | in vivo antipsychotic activity [7]: not found to be efficacious | in vivo antipsychotic activity ([7]; listed as compound of Formula I): not shown to be efficacious | EC50 ([8]; GTPγ35S, CHO membranes): 310 nM | Emax ([8]; read-out: maximum efficacy): 66% | concentration at 0.25 h ([9]; 2 mg/kg s.c.): 4.8 µM | concentration at 0.25 h ([9]; 5 mg/kg s.c.): 12.1 µM | concentration at 0.25 h ([9]; 10 mg/kg s.c.): 19.4 µM | IC50 [10]: 451 ± 97 nM | Ki [10]: 206 ± 44.5 nM | n [10]: 0.902 ± 0.055 | inhibition at 1 µM ([10]; 1 μM): 62% | receptor occupancy by PET [11]: occupies
